The record followed here is patent publication US8853227B2, “Methotrexate adjuvants to reduce toxicity and methods for using the same” (Tosk, Incorporated, priority 2008, dated 2014).

One assay concerns Drosophila melanogaster. The experiment in a line: Fly Study I (protection from MTX-induced lethality). The assay is classed as in vivo. The conditions noted are these: for Flies Alive (Number): Fly Study I method, test compound + MTX (MTX Alone: no adjuvant), Table 3. As to the method: In this study, Drosophila melanogaster eggs (50 eggs per vial) were treated with either 0.005 mg TK-112690+0.4 mg MTX (Group 1), 0.01 mg TK-112690+0.4 mg MTX (Group 2), 0.04 mg TK-112690+0.4 mg MTX (Group 3), 0.1 mg TK-112690+0.4 mg MTX (Group 4), 0.4 mg MTX alone (Group 5) or saline blank (Group 6). Two vials of eggs for each dose group were evaluated for viability (viable flies plus pupae).
The efficacy of cancer chemotherapy can be improved if agents are available to reduce the adverse events associated with treatment with cytotoxic agents. To this end, Drosophila melanogaster (commonly know as the fruit fly) is an ideal organism to screen chemical compounds for such side-effect-reducing agents. This study is aimed at finding a dose of a 2,2′-anhydropyrimidine test article that protects against MTX-induced lethality in insects.
Increasing amounts of a 2,2′-anhydropyrimidine test article (typically 0.03 to 0.1 mg) are mixed in an aqueous solution with 0.3 (or 0.4) mg MTX. Four milliliters (mL) of a 2,2′-anhydropyrimidine test article+MTX solutions are added to an appropriate amount of instant fly medium. Fruit fly eggs are added to a 2,2′-anhydropyrimidine test article+MTX treated medium and incubated for up to 31 days. After the 31 day incubation, each assay is scored by the number of mature fly and pupae per vial.
The assays are set up in clear sterile polystyrene narrow diameter vials from Applied Scientific (Hampton, N.H.). Vials are stored in trays and incubated in a darkened 25° C. incubator.
Reagents and materials used are: 50 mg/mL MTX in H2O (pH 8), 20 mg/mL of the 2,2′-anhydropyrimidine test article in H2O, water, sterile polystyrene narrow diameter vials from Applied Scientific, Instant Drosophila Food Medium, Oregon-R Drosophila melanogaster, 25° C. incubator, and 15 mL polystyrene conical tubes
Each assay is performed in a separate fly vial. Increasing amounts of a 2,2′-anhydropyrimidine (0.005 to 1.0 mg) are tested for MTX side-effect-reduction on fly eggs. Amounts of the 2,2′-anhydropyrimidine test article are drawn from a 20 mg/mL stock solution dissolved in water. Nine mL of the 2,2′-anhydropyrimidine+0.3 (or 0.4) mg MTX solutions are pre-mixed with water in a 15 mL conical tube. Duplicate assays receive 4 mL of the 2,2′-anhydropyrimidine test article+0.3 (or 0.4) mg MTX solutions. Pre-measured amounts of instant drosophila medium are added to each assay to achieve optimal hydration level. Controls are (1) 4 mL water alone and (2) 0.3 (or 0.4) mg MTX alone. Precisely 50 fly eggs aged for ˜18 hours are added to each assay. Assays are capped with a fitted plug and incubated for 30 days in a darkened 25° C. incubator. Assays are scored by the number of dead pupae or adult flies per vial.

In another assay the test system is CCRF-CEM cells. Nature of the assay: Cell Culture Study I (MTX cytotoxicity, alamarBlue). The assay is classed as cell-based, human. The conditions noted are these: 72 hours. As to the method:
In this study, CCRF-CEM cells purchased from ATCC were cultured and then 12 tubes containing approximately 10^6 cells each treated for 72 hours with media (Group1), MTX 0.03 μM (Group2), MTX+Leucovorin 1 μM (Group3), MTX+Leucovorin 10 μM (Group4), MTX+Leucovorin 100 μM (GroupS), MTX+TK-112690 1 μM (Group6), MTX+TK-112690 10 μM (Group7) and MTX+TK-112690 100 μM (Group8). […] Viability was measured as percent reduction of alamarBlue absorbance.
The tumor cell line CCR-CEM (human T-cell acute lymphoblastic leukemia) is obtained from American Type Culture Collection (CRL-1593.2) and cultured in accordance with the product information sheet with the following exceptions: 55.3 cm^2 Petri dishes are used instead of 75 cm^2 culture flasks, and 1% penicillin-streptomycin solution (HyClone SV30010) and 1% GlutaMAX™ (Gibco 35050) are added to the culture medium.
TK-112690, the representative 2,2′-anhydropyrimidine test article, is dissolved in 40% DMSO, sterile filtered then diluted with sterile distilled water to obtain initial working solutions of 10, 100 and 1000 μM. In testing, a 100 fold dilution is made in culture media to give final assay concentrations of 0.1, 1.0 and 10.0 μM. MTX (SAFC Biosciences M8407) is dissolved in sterile distilled water and 5 N NaOH then sterile filtered. The final pH of the stock solution is 7.8 and working solutions are made with sterile distilled water for final assay concentrations of 30, 3.0, 0.3, 0.03 and 0.003 μM. Leucovorin (Sigma F-7878) is dissolved in sterile distilled water, sterile filtered and diluted with sterile distilled water for final assay concentrations of 0.1, 1.0 and 10.0 μM.
Aliquots of 100 μL of cell suspension are plated in 96 well microtiter plates (Corning costar 3595) and placed in an atmosphere of 5% CO2 at 37° C. (Fisher Scientific Isotemp 3500 CO2 Incubator). After 24 hours, 100 μL of growth medium [RPMI-1640 w/L-glutamine (Cambrex 12-702Q) fortified with sodium pyruvate (HyClone SH30239.01), fetal bovine serum (SAFC Biosciences 12107C) and HEPES buffer (Gibco 15630)] and 2 μL of test solution or vehicle are added respectively per well and the plates incubated for an additional 72 hour incubation. MTX is evaluated at concentrations of 0.003, 0.03, 0.30 and 3.0 μM alone or in combination with either a 2,2′-anhydropyrimidine test article or Leucovorin at concentrations of 0.1, 1.0, 10.0 μM. At the end of incubation, the efficacy of anti-cell proliferation is determined by optical absorbance at A=570 and 600 nm [Spectramax 250 (Molecular Devices)] in accordance with the standard alamarBlue™ (Biosource) protocol.
Group 1 is the cell control (media treated). Group 2 corresponds to cells treated with 0.03 μM MTX. Group 3 are cells treated with 1.0 μM Leucovorin. Group 4 are cells treated with 0.1 μM Leucovorin. […]
For orientation: Alamar Blue is a resazurin reagent that responds to reducing activity.

Take `COCc1cn2c(nc1=O)O[C@H]1[C@H](O)[C@@H](CO)O[C@H]12` [TK-000009]: in the assay with Drosophila melanogaster, the “activity in the Fly model for protection against MTX-induced lethality” value was “active” and the “Flies Alive (Number)” value is given as 5.
In the case of `Nc1nc2c(c(=O)[nH]1)N(C=O)C(CNc1ccc(C(=O)N[C@@H](CCC(=O)O)C(=O)O)cc1)CN2` (some centres unmarked) [Leucovorin, reference compound], the “cell viability, Leucovorin+MTX versus MTX alone (protection by positive control)” value in the assay with CCRF-CEM cells (0.03 μM MTX + Leucovorin, p<0.000 and 0.002) was “statistically different”. Also, the “cell viability, test article alone versus control” value in the assay with CCRF-CEM cells (without MTX) is listed as “not statistically different than control”.
As to `Cc1ccc(SCc2cn3c(nc2=O)O[C@H]2C(O)[C@@H](CO)O[C@H]23)cc1` (some centres unmarked) [TK-000016], in the assay on Drosophila melanogaster, the “Flies Alive (Number)” value was determined as 0.
Still for that read-out and setting: the figure for `O=c1nc2n(cc1NCc1ccccc1)[C@@H]1O[C@H](CO)[C@@H](O)[C@@H]1O2` [TK-000006] is 0.
On the same count and under the same terms, the same measure for `CCOCc1cn2c(nc1=O)O[C@H]1[C@H](O)[C@@H](CO)O[C@H]12` [TK-000007]: 3; for `CC(=N)OCc1cn2c(nc1=O)O[C@H]1[C@H](O)[C@@H](CO)O[C@H]12` [TK-000010]: 0.
On the same count and under the same terms, the same measure for `O=c1nc2n(cc1COCc1ccccc1)[C@@H]1O[C@H](CO)[C@@H](O)[C@@H]1O2` [TK-000008]: 0.
In the case of `Cc1cn2c(nc1=O)O[C@H]1C(O)[C@@H](CF)O[C@H]12` (some centres unmarked) [TK-000015], the “Flies Alive (Number)” value in the assay on Drosophila melanogaster stood at 0.
On the same count and under the same terms, the same measure for `Cc1cn2c(nc1=O)O[C@H]1[C@H](O)[C@@H](CN=[N+]=[N-])O[C@H]12` [TK-000011]: 0.
